Measured values published in the METLIN SMRT retention time set (Domingo-Almenara et al. 2019).

Assay: gradient 5% acetonitrile 3 min, to 50% in 2 min, to 85% in 15 min, held 3 min, 100 µL/min
Settings: column: Zorbax Extend-C18 2.1 x 50 mm; eluents: water / acetonitrile, 0.1% formic acid
Procedure, shortened: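 In both positive and negative ionization mode, a quadrupole time-of-flight mass spectrometer coupled to HPLC analyzed pure standards run in mixtures of ~100 molecules. The Zorbax Extend-C18 column (2.1 × 50 mm, 1.8 μm) was operated at 100 μL/min with water and acetonitrile, each containing 0.1% formic acid. The dead volume was 40 μL and the dwell volume 900 μL. Retention time came from adduct peaks that were computationally picked and individually inspected by hand.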

Structure (SMILES) | RP-LC retention time
Nc1nc(Cl)cc(Nc2ccccc2Cl)n1 | 845 s
O=C(c1ccc(Cl)s1)N1CCN(c2nnc3ccccn23)CC1 | 675 s
O=C(NCC1(N2CCOCC2)CCOC1)Nc1cc(F)cc(F)c1 (configuration not stated) | 604 s
CN1CCCCCCN(C(=O)C2(c3ccccc3)CC2)[C@H]2CCC[C@H]2C1=O | 958 s
Cc1c(C)n(-c2ccc(Cl)cc2)c2ncn(CC(=O)NC3CCCCC3)c(=O)c12 | 644 s
CN1CCCN(C(=O)Nc2ccc3c(c2)OCCO3)c2ccccc21 | 649 s
O=C(NC1CC1)c1ccc(-n2cccc2)nc1 | 728 s
CC(C)c1ccc(S(=O)(=O)N2CCC(c3cc(N)on3)CC2)cc1 | 902 s
O=C([C@@H]1C[C@H](F)CN1S(=O)(=O)c1cccc(C(F)(F)F)c1)N1CCCCC1 | 878 s
CN1C(=O)c2cc(C(=O)NCCN3CCCCCC3)nn2CC1(C)C(=O)NCc1ccccc1 (configuration not stated) | 608 s
Cn1c(=O)c2cc(C(=O)N3CCN(C(=O)c4ccco4)CC3)sc2n(C)c1=O | 574 s
CCc1ccc(S(=O)(=O)c2cnc(N3CCN(C4CCCCC4)CC3)nc2N)cc1 | 706 s
COC(=O)c1[nH]c2c(c1C)C(=O)CC(c1cc(OC)c(OC)c(OC)c1)C2 (configuration not stated) | 781 s
CCn1cc(S(=O)(=O)N2CCc3ccccc3C2)c2cccnc21 | 950 s
O=C(CCC1CCN(c2cc(NC3CC3)ncn2)CC1)NCc1cc(F)cc(F)c1 | 673 s
O=C(Nc1ccccc1F)c1cc(C2CC2)on1 | 655 s
Cc1ccn2cc(-c3cccc(S(=O)(=O)N4CCCC4)c3)nc2c1 | 611 s
O=C(c1ccc(N2C(=O)CCS2(=O)=O)cc1)N1CCN(c2ccccn2)CC1 | 548 s
Cc1ccc(NC(=O)N2CC(c3nc(CCOCC4CC4)no3)C2)cc1C | 863 s
O=C(NC1CC1)C1CCCN(C(=O)c2ccccc2F)C1 (configuration not stated) | 634 s
CCN1CCN(CCNC(=O)C(C)n2c3ccccc3c3cnn(C)c(=O)c32)CC1 (configuration not stated) | 544 s
COc1cc(NC(=O)N2c3ccccc3CC2c2nc(C3CC3)no2)cc(OC)c1 (configuration not stated) | 1030 s

Further lines, results first:

RP-LC retention time | Structure (SMILES)
771 s | Cc1ccc(C)c(N2CCN(C(=O)c3cn4ccccc4n3)CC2)c1
997 s | O=C(Cc1ccccc1)NCc1nc(-c2ccc3oc(-c4ccccc4)nc3c2)no1
968 s | CCCCN(C)C(=O)c1cnc(-c2ccc(C)cc2)nc1-c1ccncc1
800 s | COc1ccc(-c2nc(NC(=O)c3cccnc3)sc2C)cc1
586 s | COc1ccc(C)cc1NC(=O)N1CCC(c2nc3ccncc3n2CC(C)C)C1 (configuration not stated)
793 s | CCNC(=O)c1cc(=O)[nH]c2c(C)cccc12
1010 s | Cc1ccc(C)c(S(=O)(=O)N2CCc3c(c(-c4nnc(-c5ccccc5F)o4)nn3C)C2)c1
836 s | Cc1nc2nc(-c3ccccc3)nn2c(C)c1CC(=O)N1CCCCC1C (configuration not stated)
807 s | COc1ccc(Cn2ccc3nc(C)c(C(=O)NCCc4c[nH]c5ccccc45)cc3c2=O)cc1
646 s | Cc1ccccc1Cn1c(CN2CCC(C(=O)NCCCN3CCCC3)CC2)cc2ccccc21
755 s | COc1ccc(C(=O)N2CCC3(CC2)N=C(c2ccccc2)NO3)c(OC)c1
897 s | COc1ccc(OC)c(NC(=O)Cn2cccc(-c3nc(-c4ccc(F)cc4)no3)c2=O)c1
821 s | COc1cc(NC(=O)COc2cc(C)nc(N3CCN(c4ccccc4)CC3)n2)cc(OC)c1
777 s | CCCCNC(=O)c1sc(Nc2cccc(C)n2)nc1C
800 s | CCc1cccc(NC(=O)Cn2ccc3sccc3c2=O)c1
